Data reported in EP0015584A2, “Nucleotides, methods for their preparation and medicaments” (Gauri, Kailash Kumar, Dr. Prof., priority 1979, dated 1980).

Tests used:
resistente Herpesviren = assay: Local treatment of herpes keratitis produced with resistant strains; format: in vivo; settings: Kaninchen, lokal, bis zu 7 mal täglich, bis zu 11 Tage; JDU-MP 0,1 bis 1 %, ÄDU-MP 0,1 bis 8 %, TFT-MP 0,1 bis 2 %, ARA-A-MP 0,2 bis 2 %, Acycloguanosin-Monophosphat 0,5 bis 5 %
Method: Man züchtet Herpes-Viren in Gewebekulturen von menschlichen Fibroblastzellen über 1 bis 5 Passagen in Gegenwart von Nukleosiden, wie beispielsweise ÄDU (Äthyldesoxyuridin), Konzentration: 20 µg/ml, TFT (Trifluorthymidin) Konzentration 5 bis 10 µg/ml, ARA-A-MP (Arabinofuranosyladenin-Monophosphat),Konzentration 20 µg/ml, Acycloguanosin (ACG), Konzentration 5 bis 30 µg/ml, wobei der Saatvirus auf die Cornea der Tiere (Hamster, Kaninchen) durch Aufträufeln übertragen wird. Zwei Stunden nach der Übertragung erfolgt die Behandlung der Cornea lokal mit den entsprechenden Nukleosiden in den oben angegebenen Konzentrationen. Dabei zeigt sich, daß die Viren für die Nukleoside resistent werden. Die Bewertung der Infektion erfolgt durch Anfärben der Hornhaut mit Fluorescin-Na-Lösung (1 %) und anschließende Farbphotodokumentation.
Die Behandlung der Herpes-Keratitis bei Kaninchen, erzeugt mit den resistenten Stämmen, erfolgt lokal mit folgenden Wirkstoffen: JDU-MP (Joddesoxyuridin-Monophosphat), Konzentration 0,1 bis 1 %, ÄDU-MP (Äthyldesoxyuridin-Monophosphat), Konzentration: 0,1 bis 8 %, TFT-MP (Trifluor- thymidin-Monophosphat), Konzentration: 0,1 bis 2 %, ARA-A-MP (Arabinofuranosyladenin-Monophosphat), Konzentration: 0,2 bis 2 %, Acycloguanosin-Monophosphat, Konzentration: 0,5 bis 5 %, bis zu 7 mal täglich für die Dauer von bis zu 11 Tagen.

Herpes-Simplex-Viren = assay: Inhibition of herpes simplex virus replication in tissue cultures of chick embryo fibroblasts; format: cell-based; settings: Gewebekulturen von Hühnerembryofibroblasten; Konzentration 10 µg/ml
Method: Dem «-XDU-Monophosphat kommt eine ungewöhnliche Eigenschaft zu, die vom Fachmann nicht vorhersehbar war. Es ist nämlich in der Lage, die Vermehrung von Herpes-Simplex-Viren zu hemmen. In Gewebekulturen von HUhnerembryofibroblasten hemmt α-ÄDU-MP in einer Konzentration von 10 µg/ml deutlich die Virusvermehrung. Unter gleicher Bedingung ist α-ÄDU selbst ohne Wirkung.

DNS = assay: Incorporation into DNA (stated property, no method described); settings: acts virostatically; no test described

## O=c1[nH]c(=O)n([C@H]2C[C@H](O)[C@@H](COP(=O)(O)O)O2)cc1C(F)(F)F [TFT-MP, Trifluor- thymidin-Monophosphat]
Resistente Herpesviren
  Bekämpfung der durch resistente Herpesviren verursachten Infektion (Herpes-Keratitis): wirksam bekämpfen

## O=c1[nH]c(=O)n([C@H]2C[C@H](O)[C@@H](COP(=O)(O)O)O2)cc1I [JDU-MP, Joddesoxyuridin-Monophosphat]
Resistente Herpesviren
  Bekämpfung der durch resistente Herpesviren verursachten Infektion (Herpes-Keratitis): wirksam bekämpfen

## CCc1cn([C@@H]2C[C@H](O)[C@@H](CO)O2)c(=O)[nH]c1=O [α-ÄDU, α-5-Äthyl-2'-deoxyuridin, reference compound]
Herpes-Simplex-Viren
  Hemmung der Virusvermehrung: ohne Wirkung

## CCc1cn([C@H]2C[C@H](O)[C@@H](COP(=O)(O)O)O2)c(=O)[nH]c1=O [ÄDU-MP, Äthyldesoxyuridin-Monophosphat]
Resistente Herpesviren
  Bekämpfung der durch resistente Herpesviren verursachten Infektion (Herpes-Keratitis): wirksam bekämpfen

## Nc1nc2c(ncn2COCCOP(=O)(O)O)c(=O)[nH]1 [Acycloguanosin-Monophosphat]
Resistente Herpesviren
  Bekämpfung der durch resistente Herpesviren verursachten Infektion (Herpes-Keratitis): wirksam bekämpfen

## CCc1cn([C@@H]2C[C@H](O)[C@@H](COP(=O)(O)O)O2)c(=O)[nH]c1=O [α-ÄDU-MP, α-5-Äthyl-2'-deoxyuridin-5'-monophosphat]
Herpes-Simplex-Viren
  Hemmung der Virusvermehrung: deutlich
DNS
  Einbau in die DNS: ohne in die DNS eingebaut zu werden
